From PubChem BioAssay AID1963849 (Molecular Pharmacology Branch, DTP, NCI, 2024)

Test system: 299254-011-R-J1-PDC complex spheroid viability
Assay: Anticancer human tumor 299254-011-R-J1-PDC patient-derived melanoma cell line growth inhibition [POLQ]
Conditions: for IC50: curve of first compound; for viability, T/C: stronger effect = lower value
How it was run: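 Growth inhibition in 3D: complex spheroids (tumor PDC, HUVEC, MSC) treated with POLQ inhibitor combinations; where Cmax unknown, highest tested concentration 10 microM, except SN-38 at 1 microM.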

[1] = second compound 0.0316 µM, first compound 0.0316 µM
[2] = second compound 0.0316 µM, first compound 0.1 µM
[3] = second compound 0.0316 µM, first compound 0.316 µM
[4] = second compound 0.0316 µM, first compound 1 µM
[5] = second compound 0.0316 µM, first compound 3.16 µM
[6] = second compound 0.0316 µM, first compound 10 µM
[7] = second compound 0.1 µM, first compound 0.0316 µM
[8] = second compound 0.1 µM, first compound 0.1 µM
[9] = second compound 0.1 µM, first compound 0.316 µM
[10] = second compound 0.1 µM, first compound 1 µM
[11] = second compound 0.1 µM, first compound 3.16 µM
[12] = second compound 0.1 µM, first compound 10 µM
[13] = second compound 0.316 µM, first compound 0.0316 µM
[14] = second compound 0.316 µM, first compound 0.1 µM
[15] = second compound 0.316 µM, first compound 0.316 µM
[16] = second compound 0.316 µM, first compound 1 µM
[17] = second compound 0.316 µM, first compound 3.16 µM
[18] = second compound 0.316 µM, first compound 10 µM
[19] = second compound 1 µM, first compound 0.0316 µM
[20] = second compound 1 µM, first compound 0.1 µM
[21] = second compound 1 µM, first compound 0.316 µM
[22] = second compound 1 µM, first compound 1 µM
[23] = second compound 1 µM, first compound 3.16 µM
[24] = second compound 1 µM, first compound 10 µM
[25] = second compound 3.16 µM, first compound 0.0316 µM
[26] = second compound 3.16 µM, first compound 0.1 µM
[27] = second compound 3.16 µM, first compound 0.316 µM
[28] = second compound 3.16 µM, first compound 1 µM
[29] = second compound 3.16 µM, first compound 3.16 µM
[30] = second compound 3.16 µM, first compound 10 µM
[31] = second compound 10 µM, first compound 0.0316 µM
[32] = second compound 10 µM, first compound 0.1 µM
[33] = second compound 10 µM, first compound 0.316 µM
[34] = second compound 10 µM, first compound 1 µM
[35] = second compound 10 µM, first compound 3.16 µM
[36] = second compound 10 µM, first compound 10 µM
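Further: spheroids exposed to drugs for one week before measurement.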
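Wherever viability, T/C is given: percent viability relative to DMSO vehicle control taken as 100%.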

With CNCc1ccc(-c2[nH]c3cc(F)cc4c3c2CCNC4=O)cc1 + Cc1cccc(N(C)C(=O)C2C(O)CCN2c2nc(C)cc(C(F)(F)F)c2C#N)c1 the IC50 (second compound 0.0316 µM) was greater than 10 µM, the IC50 (second compound 0.1 µM) was greater than 10 µM and the IC50 (second compound 0.316 µM) was greater than 10 µM. It also gave an IC50 (second compound 1 µM) greater than 10 µM, an IC50 (second compound 3.16 µM) greater than 10 µM and an IC50 (second compound 10 µM) greater than 10 µM. The viability, T/C [1] was 101%, the viability, T/C [2] was 100% and the viability, T/C [3] was 104%. The viability, T/C [4] was 109%, the viability, T/C [5] was 104% and the viability, T/C [6] was 136%. The viability, T/C [7] was 102%, the viability, T/C [8] was 105% and the viability, T/C [9] was 110%. For the same compound, the viability, T/C [10] was 112%, the viability, T/C [11] was 112% and the viability, T/C [12] was 118%. It also gave a viability, T/C [13] of 109%, a viability, T/C [14] of 110% and a viability, T/C [15] of 98.1%. The viability, T/C [16] was 108%, the viability, T/C [17] was 130% and the viability, T/C [18] was 116%. For the same compound, the viability, T/C [19] was 107%, the viability, T/C [20] was 109% and the viability, T/C [21] was 98.3%. For the same compound, the viability, T/C [22] was 103%, the viability, T/C [23] was 119% and the viability, T/C [24] was 118%. It also gave a viability, T/C [25] of 120%, a viability, T/C [26] of 110% and a viability, T/C [27] of 117%. For the same compound, the viability, T/C [28] was 109%, the viability, T/C [29] was 112% and the viability, T/C [30] was 119%. It also gave a viability, T/C [31] of 113%, a viability, T/C [32] of 98.5% and a viability, T/C [33] of 96.8%. It also gave a viability, T/C [34] of 97%, a viability, T/C [35] of 108% and a viability, T/C [36] of 118%.

O=C(c1cc(Cc2n[nH]c(=O)c3ccccc23)ccc1F)N1CCN(C(=O)C2CC2)CC1 + Nc1ccc(C#CCN(C(=O)Cc2ncc(C(F)(F)F)cc2C(F)(F)F)c2ccc(F)cc2)nn1 was tested, and the IC50 (second compound 0.0316 µM) was greater than 10 µM, the IC50 (second compound 0.1 µM) was greater than 10 µM and the IC50 (second compound 0.316 µM) was greater than 10 µM. It also gave an IC50 (second compound 1 µM) greater than 10 µM, an IC50 (second compound 3.16 µM) greater than 10 µM and an IC50 (second compound 10 µM) greater than 10 µM. The viability, T/C [1] was 120%, the viability, T/C [2] was 96.6% and the viability, T/C [3] was 92.4%. It also gave a viability, T/C [4] of 91.7%, a viability, T/C [5] of 107% and a viability, T/C [6] of 95.6%. For the same compound, the viability, T/C [7] was 94%, the viability, T/C [8] was 105% and the viability, T/C [9] was 97.2%. For the same compound, the viability, T/C [10] was 95.3%, the viability, T/C [11] was 112% and the viability, T/C [12] was 88%. It also gave a viability, T/C [13] of 111%, a viability, T/C [14] of 122% and a viability, T/C [15] of 106%. The viability, T/C [16] was 105%, the viability, T/C [17] was 97.2% and the viability, T/C [18] was 84.6%. For the same compound, the viability, T/C [19] was 105%, the viability, T/C [20] was 95.4% and the viability, T/C [21] was 100%. For the same compound, the viability, T/C [22] was 110%, the viability, T/C [23] was 109% and the viability, T/C [24] was 85.3%. It also gave a viability, T/C [25] of 103%, a viability, T/C [26] of 96.7% and a viability, T/C [27] of 94.8%. It also gave a viability, T/C [28] of 113%, a viability, T/C [29] of 93.8% and a viability, T/C [30] of 71%. For the same compound, the viability, T/C [31] was 89.1%, the viability, T/C [32] was 98.5% and the viability, T/C [33] was 113%. The viability, T/C [34] was 88.8%, the viability, T/C [35] was 99.4% and the viability, T/C [36] was 63.5%.
